Test results: patent publication US11566007B2, “Ras inhibitors” (Revolution Medicines, Inc., priority 2019, dated 2023)
Where two headings read alike, the source gives them in different places.

Assays:
[1] = test system: NCI-H358 cells (K-Ras G12C); assay: Potency assay: pERK in NCI-H358 cells; type: cell-based, human; settings: Homo sapiens, NCI-H358; H358 KRAS G12C; read-out: pERK EC50
Procedure, shortened: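 Compounds are dosed as ten 3-fold dilutions from a 10 mM DMSO stock, in duplicate, and left on cells for 4 h at 37 °C, 5% CO2. Phospho-ERK1/2 is then quantified by AlphaLISA SureFire Ultra or In-Cell Western, and IC50 is derived from a 4-parameter sigmoid against log concentration.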

K-Ras G13C = K-Ras G13C (Homo sapiens (Human), UniProt P01116+P62937, G13C); assay: Ras-Raf (BRAF RBD) disruption / FRET / MOA assay, KRAS G13C; type: biochemical; settings: KRAS G13C, Ras-Raf disruption/FRET/MOA assay
Procedure, shortened: (§1)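 Ras:RAF disruption was scored as a fall in TR-FRET ratio relative to DMSO. Compound ranged in 3-fold steps over 10 points from 30 μM final; incubation ran 3 h at 25° C, detection antibodies a further 1.5 h. Reported as IC50.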

KRAS G12S = KRAS G12S (Homo sapiens (Human), UniProt P01116+P62937, G12S); assay: Ras-Raf (BRAF RBD) disruption / FRET / MOA assay, KRAS G12S; type: biochemical; settings: class symbols
Procedure, shortened: as §1

KRAS WT = KRAS WT (Homo sapiens (Human), UniProt P01116+P62937); assay: Ras-Raf (BRAF RBD) disruption / FRET / MOA assay, KRAS WT; type: biochemical
Procedure, shortened: as §1

KRAS G13D = KRAS G13D (Homo sapiens (Human), UniProt P01116+P62937, G13D); assay: Ras-Raf (BRAF RBD) disruption / FRET / MOA assay, KRAS G13D; type: biochemical
Procedure, shortened: as §1

KRAS Q61H = KRAS Q61H (Homo sapiens (Human), UniProt P01116+P62937, Q61H); assay: Ras-Raf (BRAF RBD) disruption / FRET / MOA assay, KRAS Q61H; type: biochemical; settings: Ras-Raf disruption/FRET/MOA assay; class symbols; read-out: KRAS Q61H FRET data IC50
Procedure, shortened: (§2)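 TR-FRET disruption of nucleotide-loaded Ras binding to BRAF RBD via compound-driven ternary complex with cyclophilin A. Compound as 10-point 3-fold series from 30 μM final, 3 h at 25° C, then anti-His Eu-W1024 (10 nM) and anti-GST allophycocyanin (50 nM) for 1.5 h. IC50 from decreased FRET ratio versus DMSO.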

NRAS Q61R = NRAS Q61R (Homo sapiens (Human), UniProt P01111+P62937, Q61R); assay: Ras-Raf (BRAF RBD) disruption / FRET / MOA assay, NRAS Q61R; type: biochemical; settings: NRAS Q61R; Ras-Raf disruption/FRET/MOA assay; read-out: IC50* NRAS Q61R FRET data
Procedure, shortened: as §2

[2] = read-out: IC50* KRAS G13C FRET data
[3] = Ras-Raf disruption/FRET/MOA assay, read-out: KRAS G12S FRET data IC50
[4] = read-out: IC50* KRAS WT FRET data
[5] = read-out: IC50* KRAS G13D FRET data

KRAS WT, sequence (P01116-2 other isoform, or with tags, fused parts or gaps): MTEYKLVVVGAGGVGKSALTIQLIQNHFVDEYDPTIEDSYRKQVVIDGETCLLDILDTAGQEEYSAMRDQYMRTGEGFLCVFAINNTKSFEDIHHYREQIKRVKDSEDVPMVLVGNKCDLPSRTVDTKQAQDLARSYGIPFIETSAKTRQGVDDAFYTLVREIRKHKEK
KRAS WT, sequence (P62937 whole entry): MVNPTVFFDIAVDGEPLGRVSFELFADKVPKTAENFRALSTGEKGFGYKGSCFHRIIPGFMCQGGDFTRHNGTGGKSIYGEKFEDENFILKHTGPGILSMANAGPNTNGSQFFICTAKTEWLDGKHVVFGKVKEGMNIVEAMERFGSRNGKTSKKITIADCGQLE
NRAS Q61R, sequence (P01111 whole entry Q61R): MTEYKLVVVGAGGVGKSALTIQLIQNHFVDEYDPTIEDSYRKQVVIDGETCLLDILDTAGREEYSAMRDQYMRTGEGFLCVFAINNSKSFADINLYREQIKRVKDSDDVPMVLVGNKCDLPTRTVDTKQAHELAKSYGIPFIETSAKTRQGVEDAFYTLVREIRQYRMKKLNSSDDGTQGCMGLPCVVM
NRAS Q61R, sequence (P62937 whole entry): as the sequence (P62937 whole entry) above
KRAS G13D, sequence (P01116-2 other isoform, or with tags, fused parts or gaps G13D): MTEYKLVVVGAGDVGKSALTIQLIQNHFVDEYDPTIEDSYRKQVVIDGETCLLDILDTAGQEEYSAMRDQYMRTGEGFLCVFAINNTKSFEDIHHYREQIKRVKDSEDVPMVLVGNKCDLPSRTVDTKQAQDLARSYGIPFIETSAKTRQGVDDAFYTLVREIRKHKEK
KRAS G13D, sequence (P62937 whole entry): as the sequence (P62937 whole entry) above
KRAS G12S, sequence (P01116-2 other isoform, or with tags, fused parts or gaps G12S): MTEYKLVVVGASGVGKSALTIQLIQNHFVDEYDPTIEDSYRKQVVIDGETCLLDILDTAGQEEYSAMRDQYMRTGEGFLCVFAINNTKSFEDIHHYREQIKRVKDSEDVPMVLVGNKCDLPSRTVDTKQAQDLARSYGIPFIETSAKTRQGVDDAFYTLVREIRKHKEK
KRAS G12S, sequence (P62937 whole entry): as the sequence (P62937 whole entry) above
K-Ras G13C, sequence (P01116-2 other isoform, or with tags, fused parts or gaps G13C): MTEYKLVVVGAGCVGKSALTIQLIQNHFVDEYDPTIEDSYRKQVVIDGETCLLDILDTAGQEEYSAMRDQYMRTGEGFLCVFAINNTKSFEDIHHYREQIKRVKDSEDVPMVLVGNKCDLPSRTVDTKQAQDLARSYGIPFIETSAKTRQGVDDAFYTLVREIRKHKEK
K-Ras G13C, sequence (P62937 whole entry): as the sequence (P62937 whole entry) above
KRAS Q61H, sequence (P01116-2 other isoform, or with tags, fused parts or gaps Q61H): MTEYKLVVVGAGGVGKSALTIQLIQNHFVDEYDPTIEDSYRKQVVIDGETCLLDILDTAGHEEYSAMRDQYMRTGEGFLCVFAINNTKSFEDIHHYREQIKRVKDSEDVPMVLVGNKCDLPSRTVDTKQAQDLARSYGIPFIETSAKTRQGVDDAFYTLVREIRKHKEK
KRAS Q61H, sequence (P62937 whole entry): as the sequence (P62937 whole entry) above

SMILES | EC50 [1] [nM] | IC50 (K-Ras G13C; IC50* KRAS G13C FRET data) [nM] | IC50 (KRAS G12S; KRAS G12S FRET data IC50, Ras-Raf disruption/FRET/MOA assay) [nM] | IC50 (KRAS WT; IC50* KRAS WT FRET data) [nM] | IC50 (KRAS G13D; IC50* KRAS G13D FRET data) [nM] | IC50 (KRAS Q61H) [nM] | IC50 (NRAS Q61R) [nM] | IC50 (K-Ras G13C; [2]) [nM] | IC50 (KRAS G12S; [3]) [nM] | IC50 (KRAS WT; [4]) [nM] | IC50 (KRAS G13D; [5]) [nM]
C=CC(=O)N1CCO[C@H]2CN(C(=O)N(C)[C@H](C(=O)N[C@H]3Cc4cc(C(F)F)cc(n4)-c4ccc5c(c4)c(c(-c4cccnc4[C@H](C)OC)n5CC(F)(F)F)CC(C)(C)COC(=O)[C@@H]4CCCN(N4)C3=O)C(C)C)C[C@H]21 (atropisomer, axis not shown) [Example A540] | < 5000 | 10 to 100 | 1000 to 10000 | 1000 to 10000 | 1000 to 10000 | 100 to 1000 | 1000 to 10000 |  |  |  | 
C=CC(=O)N(C)C[C@@H]1CCN(C(=O)N(C)[C@H](C(=O)N[C@H]2Cc3nc(cs3)-c3ccc4c(c3)c(c(-c3cccnc3[C@H](C)OC)n4CC)CC(C)(C)COC(=O)[C@@H]3CCCN(N3)C2=O)C(C)C)C1 (atropisomer, axis not shown) [Example A654] | < 5000 |  |  |  |  | 10 to 100 | 100 to 1000 | 100 to 1000 | 100 to 1000 | 100 to 1000 | 100 to 1000
C=CC(=O)N1CCN(C(=O)N(C)[C@H](C(=O)N[C@H]2Cc3nc(cs3)-c3ccc4c(c3)c(c(-c3cccnc3[C@H](C)OC)n4CC)CC(C)(C)COC(=O)[C@@H]3CCCN(N3)C2=O)C(C)C)CC1 (atropisomer, axis not shown) [Example A491] | < 5000 |  |  |  |  | 10 to 100 | 10 to 100 | 10 to 100 | 10 to 100 | 10 to 100 | 100 to 1000
C=CC(=O)N(C)CC1CN(C(=O)N(C)[C@H](C(=O)N[C@H]2Cc3nc(cs3)-c3ccc4c(c3)c(c(-c3cccnc3[C@H](C)OC)n4CC)CC(C)(C)COC(=O)[C@@H]3CCCN(N3)C2=O)C(C)C)C1 (atropisomer, axis not shown) [Example A368] | < 5000 |  |  |  |  | 10 to 100 | 10 to 100 | 100 to 1000 | 100 to 1000 | 100 to 1000 | 100 to 1000
CO[C@@H](COC1CN(C(=O)C#CC(C)(C)N(C)C)C1)C(=O)N[C@H]1Cc2coc(n2)-c2ccc3c(c2)c(c(-c2cccnc2[C@H](C)OC)n3CC(F)(F)F)CC(C)(C)COC(=O)[C@@H]2CCCN(N2)C1=O (atropisomer, axis not shown) [Example A579] | < 5000 |  |  |  |  | 1000 to 10000 | > 10000 | 1000 to 10000 | 1000 to 10000 | 1000 to 10000 | > 10000
C=CC(=O)N(C)[C@@H]1CCN(C(=O)N(C)[C@H](C(=O)N[C@H]2Cc3nc(cs3)-c3ccc4c(c3)c(c(-c3cccnc3[C@H](C)OC)n4CC)CC(C)(C)COC(=O)[C@@H]3CCCN(N3)C2=O)C(C)C)C1 (atropisomer, axis not shown) [Example A416] | < 5000 |  |  |  |  | 10 to 100 | 100 to 1000 | 100 to 1000 | 100 to 1000 | 100 to 1000 | 100 to 1000
CCn1c(-c2cccnc2[C@H](C)OC)c2c3cc(ccc31)N1CCC[C@@H](C[C@H](NC(=O)[C@H](C(C)C)N(C)C(=O)C3(F)CCN(C(=O)C#CC(C)(C)N(C)C)CC3)C(=O)N3CCC[C@H](N3)C(=O)OCC(C)(C)C2)C1 (atropisomer, axis not shown) [Example A615] | < 5000 |  |  |  |  | > 10000 | > 10000 | > 10000 | > 10000 | > 10000 | > 10000
C=CC(=O)N(C)C1CCN(C(=O)N(C)[C@H](C(=O)N[C@H]2Cc3nc(cs3)-c3ccc4c(c3)c(c(-c3cccnc3[C@H](C)OC)n4CC)CC(C)(C)COC(=O)[C@@H]3CCCN(N3)C2=O)C(C)C)CC1 (atropisomer, axis not shown) [Example A383] | < 5000 |  |  |  |  | 10 to 100 | 10 to 100 | 10 to 100 | 10 to 100 | 10 to 100 | 100 to 1000
C=CC(=O)N1CC[C@H](C(=O)N(C)[C@H](C(=O)N[C@H]2Cc3coc(n3)-c3ccc4c(c3)c(c(-c3cccnc3[C@H](C)OC)n4CC)CC(C)(C)COC(=O)[C@@H]3CCCN(N3)C2=O)C(C)C)C1 (atropisomer, axis not shown) [Example A468] | < 5000 |  |  |  |  | 100 to 1000 | > 10000 | 1000 to 10000 | 1000 to 10000 | 1000 to 10000 | 1000 to 10000
C=CC(=O)N1CC[C@H](C(=O)N(C)[C@H](C(=O)N[C@H]2Cc3nc(cs3)-c3ccc4c(c3)c(c(-c3cccnc3[C@H](C)OC)n4CC(F)(F)F)CC(C)(C)COC(=O)[C@@H]3CCCN(N3)C2=O)C(C)C)C1 (atropisomer, axis not shown) [Example A502] | < 5000 |  |  |  |  | 100 to 1000 | 100 to 1000 | 100 to 1000 | 100 to 1000 | 1000 to 10000 | 1000 to 10000
CO[C@@H](C)c1ncccc1-c1c2c3cc(ccc3n1CC(F)(F)F)-c1cnc(o1)C[C@H](NC(=O)[C@H](C(C)C)N(C)C(=O)[C@H]1CCN(C(=O)C#CC(C)(C)N(C)C)C1)C(=O)N1CCC[C@H](N1)C(=O)OCC(C)(C)C2 (atropisomer, axis not shown) [Example A707] | < 5000 |  |  |  |  | 1000 to 10000 | > 10000 | 100 to 1000 | 1000 to 10000 | 1000 to 10000 | 1000 to 10000
CCn1c(-c2cccnc2[C@H](C)OC)c2c3cc(ccc31)-c1csc(n1)C[C@H](NC(=O)C[C@@H]1COC3(CN(C(=O)C#CC(C)(C)N(C)C)C3)O1)C(=O)N1CCC[C@H](N1)C(=O)OCC(C)(C)C2 (atropisomer, axis not shown) [Example A691] | < 5000 |  |  |  |  | 1000 to 10000 | 1000 to 10000 | 1000 to 10000 | 1000 to 10000 | 1000 to 10000 | 1000 to 10000
CCn1c(-c2cccnc2[C@H](C)OC)c2c3cc(ccc31)-c1csc(n1)C[C@H](NC(=O)[C@H](C(C)C)N(C)C(=O)N1CCC3(CC1)CN(C(=O)/C=C/CN1CCOCC1)C3)C(=O)N1CCC[C@H](N1)C(=O)OCC(C)(C)C2 (atropisomer, axis not shown) [Example A669] | < 5000 |  |  |  |  | 10 to 100 | 10 to 100 | 100 to 1000 | 100 to 1000 | 100 to 1000 | 100 to 1000
C=CC(=O)N1CC[C@H](C(=O)N(C)[C@H](C(=O)N[C@H]2Cc3cc(O)cc(c3)-c3ccc4c(c3)c(c(-c3cncc5c3[C@@H](OC)CC5)n4CC)CC(C)(C)COC(=O)[C@@H]3CCCN(N3)C2=O)C(C)C)C1 [Example A275] | < 5000 |  |  |  |  | 10 to 100 | 100 to 1000 | 10 to 100 | 10 to 100 | 100 to 1000 | 100 to 1000
C=CC(=O)N(C)[C@@H]1CCCN(C(=O)N(C)[C@H](C(=O)N[C@H]2Cc3nc(cs3)-c3ccc4c(c3)c(c(-c3cccnc3[C@H](C)OC)n4CC)CC(C)(C)COC(=O)[C@@H]3CCCN(N3)C2=O)C(C)C)C1 (atropisomer, axis not shown) [Example A382] | < 5000 |  |  |  |  | 10 to 100 | 10 to 100 | 100 to 1000 | 10 to 100 | 10 to 100 | 100 to 1000
